In PubChem BioAssay (NCI):
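Where inhibition never reached the appropriate level, the endpoint shown equals the highest concentration tested. Otherwise, values were interpolated linearly from a five-concentration, 48-hour dose response in 96-well plates. The concentration for 50% growth inhibition is given as GI50. TGI: total growth inhibition.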 Where a SMILES comes first, the peptide text is derived from it. The star is where a group is joined. Cbz = O=C(OCc1ccccc1)*

Experiments:
Assay in all cases: NCI-60 cell line screen, 48 h
UO-31 renal = test system: UO-31 renal
MDA-MB-435 = test system: MDA-MB-435
OVCAR-8 ovarian = test system: OVCAR-8 ovarian
M14 melanoma = test system: M14 melanoma
HCC-2998 colon = test system: HCC-2998 colon
NCI-H23 lung = test system: NCI-H23 lung
ACHN renal = test system: ACHN renal
NCI/ADR-RES ovarian = test system: NCI/ADR-RES ovarian
BT-549 breast = test system: BT-549 breast
HOP-92 NSCLC = test system: HOP-92 NSCLC

| Compound | TGI (UO-31 renal) [µM] | TGI (MDA-MB-435) [µM] | TGI (OVCAR-8 ovarian) [µM] | TGI (M14 melanoma) [µM] | TGI (HCC-2998 colon) [µM] | TGI (NCI-H23 lung) [µM] | TGI (ACHN renal) [µM] | TGI (NCI/ADR-RES ovarian) [µM] | TGI (BT-549 breast) [µM] | TGI (HOP-92 NSCLC) [µM] | GI50 (UO-31 renal) [µM] | GI50 (MDA-MB-435) [µM] | GI50 (OVCAR-8 ovarian) [µM] | GI50 (M14 melanoma) [µM] | GI50 (HCC-2998 colon) [µM] | GI50 (NCI-H23 lung) [µM] | GI50 (ACHN renal) [µM] | GI50 (NCI/ADR-RES ovarian) [µM] | GI50 (BT-549 breast) [µM] | GI50 (HOP-92 NSCLC) [µM] |
| --- | --- | --- | --- | --- | --- | --- | --- | --- | --- | --- | --- | --- | --- | --- | --- | --- | --- | --- | --- | --- |
| O=P1(Oc2ccccc2)NCc2ncccc2O1 (stereo not given) | > 100 | > 100 | > 100 | > 100 | > 100 | > 100 | > 100 | > 100 | > 100 | > 100 |  |  |  |  |  |  |  |  |  |  |
| CN(C)/C=C/c1c2c(nc3ccccc13)C(=O)c1ccccc1C2=O | 7.2 | 0.206 | 7.71 | 1.92 | 5.17 | 0.882 | 3.44 | 5.6 | 4.87 | 30 |  |  |  |  |  |  |  |  |  |  |
| CCOC(=O)CNC(=O)C(C)NC(=O)C(NC(=O)OCc1ccccc1)C(C)C (stereo not drawn) (Cbz-Val-Ala-Gly-OEt; configuration not given here) | > 100 | > 100 | > 100 | > 100 | > 100 | > 100 | > 100 | > 100 | > 100 | > 100 |  |  |  |  |  |  |  |  |  |  |
| CC(=O)c1ccccc1NS(=O)(=O)c1ccc2nc(C)n(NS(=O)(=O)c3ccccc3C(C)=O)c(=O)c2c1 | > 100 | > 100 | > 100 | > 100 | > 100 | > 100 | > 100 | > 100 | > 100 | > 100 |  |  |  |  |  |  |  |  |  |  |
| C[C@]12CCc3sc(-c4cccc(F)c4)nc3C1=CC[C@@H]1[C@@H]2CC[C@]2(C)C(=O)CC[C@@H]12 | 2.98 | > 100 | > 100 | > 100 | > 100 | 33.5 | 3.01 | 57.5 | 8.06 | 5.63 | 1.61 | 2.97 | 3.45 | 6.62 | 3.19 | 3.54 | 1.64 | 3.41 | 2.2 | 2.44 |
| Oc1ccccc1-c1nn2c(CCCCCCCCc3nnc4sc(-c5ccccc5O)nn34)nnc2s1 | 48.5 | > 100 | > 100 | > 77.7 | > 100 | > 100 | > 100 | > 100 | > 100 | > 100 |  |  |  |  |  |  |  |  |  |  |
| CCOP(C)(=O)/C(Cc1ccc(OC)c(OC)c1)=N\O (stereo not given) | > 100 | > 100 | > 100 | > 100 | > 100 | > 100 | > 100 | > 100 | > 100 | > 100 |  |  |  |  |  |  |  |  |  |  |
| Cc1nn(-c2ccccc2)c2nc3ccc(Cl)cc3c(-c3ccccc3)c12 | > 100 | > 100 | > 100 | > 100 | > 100 | > 100 | > 100 | > 100 | > 100 | > 100 |  |  |  |  |  |  |  |  |  |  |
| O[C@H]1[C@H](O)[C@@H](Cn2nnc(-c3ccccc3)c2-c2ccccc2)OCO[C@@H]1Cn1nnc(-c2ccccc2)c1-c1ccccc1 | 17 | 22.8 | 18.1 | 11.7 | 6.31 | 26.2 | 13.6 | > 42.4 | 23.7 | 8.23 |  |  |  |  |  |  |  |  |  |  |
| CC(=O)OC(=C(C#N)C#N)c1nccnc1C(C)=O | > 20 | > 20 | > 20 | 11.8 | > 20 | > 20 | > 20 | > 20 | > 20 | > 20 |  |  |  |  |  |  |  |  |  |  |
| Cc1cc(C)c2c(=O)cc(-c3ccc4ccccc4c3)[nH]c2n1 | > 100 | 12 | > 100 | 67.5 | > 81.8 | > 100 | > 100 | > 63.9 | > 100 | 78.8 |  |  |  |  |  |  |  |  |  |  |
| C=CCn1c(-c2ccc(Cl)cc2Cl)csc1=Nc1c(C)n(C)n(-c2ccccc2)c1=O | 24.3 | 25.2 | 21.7 | 23.8 | 29.1 | 23.4 | 27.7 | 34.2 | 26.4 | 41.1 |  |  |  |  |  |  |  |  |  |  |
| CC(=O)C1=C(C)N(c2ccccc2)C2(O)C=CC(=O)C3=C(O)c4ccccc4C(=O)C312 (stereo not given) | 33.7 | 5.19 | 34.3 | 58.8 | 25.4 | 46.3 | 31.2 | 37.5 | 31.8 | 63.9 |  |  |  |  |  |  |  |  |  |  |
| O=C(c1ccccc1)c1nn(-c2ccccc2)c2nc3nc(-c4ccccc4)cc(=O)n3nc12 | > 100 | 48.3 | 84.8 | 81.4 | 60.2 | > 100 | > 100 | 74.5 | 52.2 | 78.3 | 25.7 | 18.1 | 27.1 | 27.3 | 32.6 | 33.1 | 37.1 | 26.2 | 21.2 | 24.6 |
| Cc1c(-c2ccc(O)c(O)c2)oc(=O)c2c(O)cccc12 | 24.4 | 12.3 | > 100 | 20.7 | 22.1 | 22 | > 100 | 29.7 | 44.6 | 58.2 |  |  |  |  |  |  |  |  |  |  |
